For twelve compounds, melting point results are on record in patent publication US8399462B2, “JNK modulators” (Roche Palo Alto LLC, priority 2006, dated 2013).

`CC(=O)N1CCN(c2cccc3c2ccn3-c2ccnc(N[C@H]3CC[C@H](N(CCO)S(C)(=O)=O)CC3)n2)CC1` [Compound 320, N-(4-{4-[4-(4-acetyl-piperazin-1-yl)-indol-1-yl]-pyrimidin-2-ylamino}-cyclohexyl)-N-(2-hydroxy-ethyl)-methanesulfonamide] had a melting point of 244.5 to 248.8 °C.

`CN(C)S(=O)(=O)N[C@H]1CC[C@H](Nc2nccc(-n3ccc4c(C5(O)CCOCC5)cccc43)n2)CC1` [Compound 182, N-(4-{4-[4-(4-hydroxy-tetrahydropyran-4-yl)-indol-1-yl]-pyrimidin-2-ylamino}-cyclohexyl)-(N′,N′-dimethylamino)-sulfonamide] returned a melting point above 300 °C.

With `CS(=O)(=O)Nc1cccc2c1ccn2-c1ccnc(N[C@H]2CC[C@H](O)CC2)n1` [Compound 97, N-{1-[2-(4-hydroxy-cyclohexylamino)-pyrimidin-4-yl]-1H-indol-4-yl}-N-methane-sulfonamide], the melting point fell in the range of 240.2 to 240.8 °C. The result for `CS(=O)(=O)N[C@H]1CC[C@H](Nc2nccc(-n3ccc4c(OCCCC(F)(F)F)cccc43)n2)CC1` [Compound 235, N-(4-{4-[4-(4,4,4-tri-fluoro-butoxy)-indol-1-yl]-pyrimidin-2-yl-amino}-cyclohexyl)-methanesulfonamide] reads 241 to 242 °C. `c1ccc2c(c1)ccn2-c1ccnc(NC2CCCCC2)n1` [Compound 66, Cyclohexyl-(4-indol-1-ylpyrimidin-2-yl)amine]: the melting point is 192.5 to 193 °C. In the case of `CN([C@H]1CC[C@H](Nc2nccc(-n3ncc4c(OCCCNS(C)(=O)=O)cccc43)n2)CC1)S(C)(=O)=O` [Compound 197, N-[3-(1-{2-[4-(methane-sulfonyl-methylamino)-cyclohexylamino]-pyrimidin-4-yl}-1H-indazol-4-yloxy)-propyl]-methane-sulfonamide], the melting point lay in the range of 259 to 259.5 °C.

`CC(=O)N[C@H]1CC[C@H](Nc2nccc(-n3ncc4c(OCCO)cccc43)n2)CC1` [Compound 130, N-(4-{4-[4-(2-hydroxy-ethoxy)-indazol-1-yl]-pyrimidin-2-ylamino}-cyclohexyl)-acetamide]: the melting point was in the range of 242.7 to 245.5 °C.

Consider `O=C([C@H]1CC[C@H](Nc2nccc(-n3ccc4c(OCC(F)(F)F)cccc43)n2)CC1)N1CCC(O)CC1` [Compound 279, (4-hydroxy-piperidin-1-yl)-(4-{4-[4-(2,2,2-trifluoroethoxy)-indol-1-yl]-pyrimidin-2-yl-amino}-cyclohexyl)-methanone], for which the melting point lay in the range of 140.7 to 143.3 °C.

`CS(=O)(=O)CCCOc1cccc2c1cnn2-c1ccnc(N[C@H]2CC[C@H](C(=O)N3CCC(O)CC3)CC2)n1` [Compound 184, (4-hydroxy-piperidin-1-yl)-(4-{4-[4-(3-methane-sulfonyl-propoxy)-indazol-1-yl]-pyrimidin-2-ylamino}-cyclohexyl)-methanone] yielded a melting point of 143 to 145 °C. Regarding `CSC[C@H]1CC[C@H](Nc2nccc(-n3ccc4c(OCCCS(C)(=O)=O)cccc43)n2)CC1` [Compound 298, {4-[4-(3-methane-sulfonyl-propoxy)-indol-1-yl]-pyrimidin-2-yl}-(4-methylsulfanylmethyl-cyclohexyl)-amine], the melting point lay in the range of 158.7 to 159.6 °C. In turn, `CN(C)S(=O)(=O)N[C@H]1CC[C@H](Nc2nccc(-n3ncc4c(OCCCO)cccc43)n2)CC1` [Compound 145, N-(N′,N′-dimethylsulfonamido) N-(4-{4-[4-(3-hydroxy-propoxy)-indazol-1-yl]-pyrimidin-2-ylamino}-cyclohexyl) amine] yielded a melting point of 248 to 250 °C. For the compound `Nc1cccc2c1ccn2-c1ccnc(N[C@H]2CC[C@H](O)CC2)n1` [Example 8, trans-4-[4-(4-Aminoindol-1-yl)-pyrimidin-2-ylamino]-cyclohexanol], the melting point was 218.9 to 220.1 °C.

Broadly, the melting point is the temperature, or range, at which the solid turns liquid.
